26 molecules from ChEMBL document CHEMBL1130370, “Novel hydroxyphosphonate inhibitors of CD-45 tyrosine phosphatase” (Bioorg Med Chem Lett, 1997) can be followed below.

Assay [1] has as its target T1, Receptor-type tyrosine-protein phosphatase C (Homo sapiens) (UniProt P08575).
T1 sequence (whole entry): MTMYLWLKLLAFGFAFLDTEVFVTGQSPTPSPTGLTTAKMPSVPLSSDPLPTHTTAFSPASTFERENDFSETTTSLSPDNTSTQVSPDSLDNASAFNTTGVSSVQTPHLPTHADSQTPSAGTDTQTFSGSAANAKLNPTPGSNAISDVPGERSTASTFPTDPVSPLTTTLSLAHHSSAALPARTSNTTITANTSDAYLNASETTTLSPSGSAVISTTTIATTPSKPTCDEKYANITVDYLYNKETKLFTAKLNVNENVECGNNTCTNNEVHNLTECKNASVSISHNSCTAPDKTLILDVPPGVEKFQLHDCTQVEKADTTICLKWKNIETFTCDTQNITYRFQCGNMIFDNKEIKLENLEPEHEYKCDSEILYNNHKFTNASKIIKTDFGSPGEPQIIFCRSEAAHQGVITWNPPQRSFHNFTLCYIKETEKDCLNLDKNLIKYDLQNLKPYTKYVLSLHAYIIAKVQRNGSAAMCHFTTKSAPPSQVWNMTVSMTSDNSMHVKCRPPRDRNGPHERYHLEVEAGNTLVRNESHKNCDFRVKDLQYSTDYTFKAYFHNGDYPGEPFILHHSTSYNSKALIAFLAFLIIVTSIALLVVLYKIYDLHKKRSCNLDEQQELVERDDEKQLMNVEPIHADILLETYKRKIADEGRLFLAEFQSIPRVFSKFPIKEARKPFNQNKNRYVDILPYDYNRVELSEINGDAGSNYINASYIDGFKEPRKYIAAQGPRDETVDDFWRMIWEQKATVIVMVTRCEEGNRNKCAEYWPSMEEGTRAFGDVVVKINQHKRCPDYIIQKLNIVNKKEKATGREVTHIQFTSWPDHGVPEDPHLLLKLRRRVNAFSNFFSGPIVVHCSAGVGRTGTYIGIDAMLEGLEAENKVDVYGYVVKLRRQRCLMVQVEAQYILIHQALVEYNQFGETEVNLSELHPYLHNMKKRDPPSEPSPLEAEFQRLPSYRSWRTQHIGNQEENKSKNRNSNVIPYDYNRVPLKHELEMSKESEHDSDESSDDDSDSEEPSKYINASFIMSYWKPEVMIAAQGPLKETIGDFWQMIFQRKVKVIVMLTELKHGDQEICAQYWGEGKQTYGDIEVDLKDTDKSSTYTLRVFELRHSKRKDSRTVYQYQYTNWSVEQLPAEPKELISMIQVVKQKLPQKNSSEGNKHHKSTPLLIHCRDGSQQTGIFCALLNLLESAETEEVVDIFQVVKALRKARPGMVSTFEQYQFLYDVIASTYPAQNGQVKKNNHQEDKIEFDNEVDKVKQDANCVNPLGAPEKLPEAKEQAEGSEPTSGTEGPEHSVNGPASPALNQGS
Description: Inhibition of CD45 protein-tyrosine phosphatase of Jurkat cell membrane at 500 uM. The class given is cell-based.

Assay [2] addresses T2, Receptor-type tyrosine-protein phosphatase C (Homo sapiens, UniProt P08575).
T2 sequence (P08575 whole entry): T1 sequence (whole entry)
Description: Tested for inhibitory activity against CD45 protein-tyrosine phosphatase of Jurkat cell membrane at 1000 uM. It counts as cell-based.

Assay [3] concerns the target T1, Receptor-type tyrosine-protein phosphatase C (Homo sapiens). Description: Compound was tested for its inhibitory activity against CD45 protein-tyrosine phosphatase of Jurkat cell membrane at 1000 uM concentration. It counts as cell-based.
Assay [4] can be described thus: Compound was tested for its inhibitory activity against Osteoclastic acid phosphatase. Also on record: species or system Homo sapiens.
Assay [5] concerns the target T1, Receptor-type tyrosine-protein phosphatase C (Homo sapiens). In words: Compound was tested for its inhibitory activity against CD45 protein-tyrosine phosphatase of Jurkat cell membrane at 250 uM concentration. It counts as cell-based.
Assay [6] deals with T3, Prostatic acid phosphatase (Homo sapiens, UniProt P15309).
T3 sequence (P15309 whole entry): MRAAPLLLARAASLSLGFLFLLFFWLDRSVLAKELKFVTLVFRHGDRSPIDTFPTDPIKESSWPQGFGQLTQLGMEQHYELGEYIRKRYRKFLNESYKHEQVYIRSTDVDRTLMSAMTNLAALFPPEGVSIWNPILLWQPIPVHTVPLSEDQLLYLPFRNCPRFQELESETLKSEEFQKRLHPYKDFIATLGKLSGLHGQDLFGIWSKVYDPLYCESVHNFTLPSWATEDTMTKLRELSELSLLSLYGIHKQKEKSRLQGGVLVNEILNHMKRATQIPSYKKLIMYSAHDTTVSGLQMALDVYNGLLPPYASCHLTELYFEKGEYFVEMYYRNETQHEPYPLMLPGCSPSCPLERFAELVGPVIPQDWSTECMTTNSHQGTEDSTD
Description: Compound was tested for its inhibitory activity against human prostatic acid phosphatase.

For `Cc1cccc(C(O)P(=O)(O)O)c1` (stereo unspecified), in assay [1], the inhibition is 27%. In assay [1], `O=P(O)(O)C(O)c1ccccn1` (stereo unspecified) came in with an inhibition of 2%. On to `O=[N+]([O-])c1cccc(C(O)P(=O)(O)O)c1` (stereo unspecified), for which half-maximal inhibition in assay [2] (IC50) was put at 10 µM. Further, the inhibition in assay [3] was 93%. As to `O=C(c1ccccc1)C(C(=O)c1ccccc1)(c1cccc2ccccc12)P(=O)(O)O`, the inhibition in assay [1] amounted to 8%. In addition, in assay [4], half-maximal inhibition (IC50) required 1400 nM. In assay [1], `O=P(O)(O)C(O)c1cccc(O)c1` (stereo unspecified) returned an inhibition of 0%. The molecule `O=P(O)(O)C(O)c1cccc2ccccc12` (stereo unspecified) had an inhibition in assay [3] of 53%. The molecule `O=P(O)(O)C(O)c1cccc(Cl)c1` (stereo unspecified) showed an inhibition in assay [1] of 49%. As for `Nc1cccc(C(O)P(=O)(O)O)c1` (stereo unspecified), the inhibition in assay [1] stood at 23%.

`N#Cc1cccc(C(O)P(=O)(O)O)c1` (stereo unspecified) showed an inhibition in assay [3] of 49%. Regarding `O=[N+]([O-])c1cc(C(O)P(=O)(O)O)ccc1O` (stereo unspecified), the inhibition in assay [3] was 8%.

The molecule `O=[N+]([O-])c1ccc(O)c(C(O)P(=O)(O)O)c1` (stereo unspecified) registered an inhibition in assay [1] of 75%. In assay [1], `COc1ccc(C(O)P(=O)(O)O)cc1` (stereo unspecified) displayed an inhibition of 42%. On the same count and under the same terms, then `O=P(O)(O)C(O)c1ccnc2ccccc12` (stereo unspecified), with 58%; and `CS(=O)(=O)c1ccc(C(O)P(=O)(O)O)cc1` (stereo unspecified), with 41%. `O=[N+]([O-])c1ccc(C(O)P(=O)(O)O)cc1` (stereo unspecified) had a half-maximal inhibitory concentration (IC50) in assay [2] of 28 µM. For the same molecule, the inhibition in assay [3] worked out at 98%. On the same counts, the results for `CC(O)(c1cccc([N+](=O)[O-])c1)P(=O)(O)O` (stereo unspecified) are 58 µM and 97%. Turning to `O=[N+]([O-])c1cc(C(O)P(=O)(O)O)cs1` (stereo unspecified), in assay [1], the inhibition is 93%. As for `O=P(O)(O)C(O)c1ccc2ccccc2c1` (stereo unspecified), in assay [1], the inhibition worked out at 59%. Still for that read-out and setting: then `Cc1cccc(C(c2ccccc2)P(=O)(O)O)c1` (stereo unspecified), with 8%. Same read-out and setting: then `O=P(O)(O)C(O)c1cccnc1` (stereo unspecified), with 13%. For `O=P(O)(O)C(NCc1ccccc1)c1cccc2ccccc12` (stereo unspecified), the inhibition in assay [5] was found to be 23%. Besides, the IC50 in assay [6] came to 8.6 nM.

Take `O=P(O)(O)C(O)c1ccccc1` (stereo unspecified): the inhibition in assay [3] was determined as 39%. In the case of `O=[N+]([O-])c1ccc(Cl)c(C(O)P(=O)(O)O)c1` (stereo unspecified), the inhibition in assay [1] is 81%. Still for that read-out and setting: then `O=P(O)(O)C(O)c1ccncc1` (stereo unspecified), with 0%; and `O=[N+]([O-])c1cccc(CP(=O)(O)O)c1`, with 17%. Take `O=[N+]([O-])c1ccc(SC2CCCCC2)c(C(O)P(=O)(O)O)c1` (stereo unspecified): the inhibition in assay [1] turned out to be 99%.
